The NIST ThermoML archive (doi:10.1007/s10765-005-8096-3)

Experiment: refractive index (Na D-line) (dimensionless); xn = mol fraction of the nth substance listed
Settings: 101 kPa, Liquid, Standard Abbe refractometry

CCCCc1ccccc1 [butylbenzene] + CCCCOC(C)=O
refractive index
Settings | 293.15 K | 298.15 K | 303.15 K | 308.15 K | 313.15 K
x2 = 0.049 | 1.48578 | 1.48339 | 1.48091 | 1.47847 | 1.47595
x2 = 0.1016 | 1.48141 | 1.47885 | 1.47649 | 1.47387 | 1.47154
x2 = 0.1545 | 1.47686 | 1.47443 | 1.47201 | 1.46946 | 1.46708
x2 = 0.1989 | 1.47295 | 1.47054 | 1.46814 | 1.46556 | 1.46318
x2 = 0.2515 | 1.46838 | 1.46596 | 1.46358 | 1.461 | 1.45858
x2 = 0.3023 | 1.46389 | 1.46143 | 1.45905 | 1.45651 | 1.45403
x2 = 0.3501 | 1.45956 | 1.45713 | 1.4547 | 1.45232 | 1.44977
x2 = 0.3997 | 1.45505 | 1.45258 | 1.45018 | 1.44769 | 1.44526
x2 = 0.45 | 1.45031 | 1.44787 | 1.44547 | 1.44298 | 1.44055
x2 = 0.4993 | 1.44563 | 1.44318 | 1.44078 | 1.43832 | 1.43589
x2 = 0.5496 | 1.44082 | 1.43837 | 1.43591 | 1.43351 | 1.43104
x2 = 0.6004 | 1.43586 | 1.43342 | 1.43102 | 1.42848 | 1.42602
x2 = 0.6499 | 1.43099 | 1.42852 | 1.42607 | 1.42354 | 1.42107
x2 = 0.6998 | 1.42593 | 1.42345 | 1.42099 | 1.41852 | 1.41609
x2 = 0.7517 | 1.4207 | 1.41819 | 1.41576 | 1.41331 | 1.41084
x2 = 0.801 | 1.41551 | 1.41312 | 1.4106 | 1.40817 | 1.40574
x2 = 0.8489 | 1.41049 | 1.40806 | 1.40567 | 1.40319 | 1.40078
x2 = 0.8999 | 1.40499 | 1.40257 | 1.40021 | 1.39782 | 1.39529
x2 = 0.9493 | 1.39969 | 1.39734 | 1.39484 | 1.39244 | 1.39

CCCCOC(C)=O [butyl ethanoate] + Cc1ccccc1
refractive index
Settings | 293.15 K | 298.15 K | 303.15 K | 308.15 K | 313.15 K
x1 = 0.0499 | 1.49044 | 1.48757 | 1.48472 | 1.4818 | 1.47891
x1 = 0.0998 | 1.48428 | 1.48149 | 1.47861 | 1.47573 | 1.47285
x1 = 0.15 | 1.47815 | 1.47538 | 1.47251 | 1.46966 | 1.46684
x1 = 0.2001 | 1.47222 | 1.46948 | 1.46668 | 1.46382 | 1.46101
x1 = 0.2502 | 1.46644 | 1.46358 | 1.46079 | 1.45814 | 1.45535
x1 = 0.2985 | 1.461 | 1.45826 | 1.45547 | 1.45277 | 1.4501
x1 = 0.3447 | 1.4559 | 1.45318 | 1.45041 | 1.44769 | 1.44494
x1 = 0.4011 | 1.4498 | 1.44705 | 1.4443 | 1.44161 | 1.4389
x1 = 0.4468 | 1.44504 | 1.44235 | 1.4397 | 1.43691 | 1.43423
x1 = 0.4994 | 1.43964 | 1.43696 | 1.4343 | 1.43157 | 1.42895
x1 = 0.5524 | 1.4343 | 1.43166 | 1.42902 | 1.42632 | 1.42368
x1 = 0.5999 | 1.42964 | 1.42695 | 1.42432 | 1.42164 | 1.41904
x1 = 0.6517 | 1.42468 | 1.42207 | 1.41943 | 1.41676 | 1.41415
x1 = 0.7 | 1.42017 | 1.41756 | 1.41498 | 1.41233 | 1.40974
x1 = 0.7516 | 1.41545 | 1.41287 | 1.41026 | 1.40773 | 1.40511
x1 = 0.7972 | 1.41141 | 1.40888 | 1.40629 | 1.40371 | 1.4012
x1 = 0.8404 | 1.4076 | 1.40508 | 1.4025 | 1.39992 | 1.39741
x1 = 0.8971 | 1.40273 | 1.40025 | 1.39777 | 1.39518 | 1.39265
x1 = 0.9449 | 1.39881 | 1.3963 | 1.39384 | 1.39133 | 1.38884
